Data: patent US7056924B2, “Substituted heterocyclic compounds” (CV Therapeutics, Inc., priority 2002, dated 2006)

Tested on: Palmitoyl CoA oxidation in rat heart mitochondria
Experiment: Mitochondrial assay: Palmitoyl CoA oxidation
Format: biochemical
Conditions: 16 microM 1-C14 palmitoyl CoA, 15 min at 30° C., read-out: Effect of Compounds of the Invention on Palmitoyl CoA Oxidation (IC50)
Description: Rat heart mitochondria were isolated by the method of Nedergard and Cannon (Methods in Enzymol. 55, 3, 1979).
Palmitoyl CoA oxidation—The Palmitoyl CoA oxidation was carried out in a total volume of 100 micro liters containing the following agents: 110 mM KCl, 33 mM Tris buffer at pH 8, 2 mM KPi, 2 mM MgCl2, 0.1 mM EDTA, 14.7 microM defatted BSA, 0.5 mM malic acid, 13 mM carnitine, 1 mM ADP, 52 micrograms of mitochondrial protein, and 16 microM 1-C14 palmitoyl CoA (Sp. Activity 60 mCi/mmole; 20 microCi/ml, using 5 microliters per assay). The compounds of this invention were added in a DMSO solution at the following concentrations: 100 micro molar, 30 micro molar, and 3 micro molar. In each assay, a DMSO control was used. After 15 min at 30° C., the enzymatic reaction was centrifuged (20,000 g for 1 min), and 70 microliters of the supernatant was added to an activated reverse phase silicic acid column (approximately 0.5 ml of silicic acid). The column was eluted with 2 ml of water, and 0.5 ml of the eluent was used for scintillation counting to determine the amount of C^14 trapped as C^14 bicarbonate ion.

| Compound | IC50 [nM] |
| --- | --- |
| (2R)-3-{(2S)-2-methyl-4-[(3-(2-thienyl)(1,2,4-oxadiazol-5-yl))methyl]piperazinyl}-1-(2-methylbenzothiazol-5-yloxy)propan-2-ol | 490 |
| (2R)-1-((2S)-2-methyl-4-{[5-(4-methylphenyl)(1,3,4-oxadiazol-2-yl)]methyl}piperazinyl)-3-(2-methylbenzothiazol-5-yloxy)propan-2-ol | 540 |
| (2R)-1-(4-{[3-(2-chlorophenyl)(1,2,4-oxadiazol-5-yl)]methyl}piperazinyl)-3-(2-methylbenzothiazol-5-yloxy)propan-2-ol | 1340 |
| (2R)-3-{(3S)-3-methyl-4-[(3-(4-methoxyphenyl)isoxazol-5-yl)methyl]piperazinyl}-1-(2-methylbenzothiazol-5-yloxy)propan-2-ol | 740 |
| (2R)-3-((3S)-3-methyl-4-{[5-(4-trifluoromethylphenyl)isoxazol-3-yl]methyl}-piperazinyl)-1-(2-methylbenzothiazol-5-yloxy)propan-2-ol | 250 |
| (2R)-3-(2-methylbenzothiazol-5-yloxy)-1-[4-({5-[3-(trifluoromethyl)phenyl](1,3,4-oxadiazol-2-yl)}methyl)piperazinyl]propan-2-ol | 6300 |
| Cc1nc2cc(OC[C@H](O)CN3CCN(Cc4nnc(-c5ccc(C(F)(F)F)cc5)o4)C[C@@H]3C)ccc2s1 [(2R)-1-[(2S)-2-methyl-4-({5-[4-(trifluoromethyl)phenyl](1,3,4-oxadiazol-2-yl)}methyl)piperazinyl]-3-(2-methylbenzothiazol-5-yloxy)propan-2-ol] | 530 |
